Results published in patent US12043597B2, “Crystalline polymorphs of Rivoceranib and Rivoceranib mesylate” (ASSIA CHEMICAL INDUSTRIES LTD., priority 2018, dated 2024).

Test: Solid-state (polymorphic) stability of the crystalline form under humidity, temperature and mass pressure stress
Assay type: physicochemical
Excerpt: As used herein, the term “stable” in relation to crystalline Rivoceranib and Rivoceranib mesylate refers to less than 20%, less than 10%, less than 5%, less than 2%, less than 1%, or less than 0.5% conversion of crystalline Rivoceranib or Rivoceranib mesylate to any other solid state form of Rivoceranib or Rivoceranib mesylate, respectively.
As discussed above, depending on which other solid state it is compared with, Form RT2 of Rivoceranib according to the present disclosure may have advantageous properties as described above. Particularly, crystalline Form RT2 of Rivoceranib mesylate of the present disclosure is stable, for example upon exposure to high humidity or high temperature or high mass pressure conditions, such as 60° C./100% RH for up to 7 days or 80% RH at room temperature for 2 days, or under 100° C. for 60 minutes or under mass pressure of 2 ton for 1 minute.

CS(=O)(=O)O.N#CC1(c2ccc(NC(=O)c3cccnc3NCc3ccncc3)cc2)CCCC1 [Form RT2, N-[4-(1-Cyanocyclopentyl)phenyl]-2-(pyridin-4-ylmethylamino)pyridine-3-carboxamide methanesulfonate]
stable: stability upon exposure to high humidity and temperature (60° C./100% RH for up to 7 days) | stability upon exposure to high humidity (80% RH at room temperature for 2 days) | stability upon exposure to high temperature (100° C. for 60 minutes) | stability under high mass pressure (mass pressure of 2 ton for 1 minute)
